Columns and labels:
wild-type mice = assay: Sleep recording (EEG/EMG) in wild-type mice; type: in vivo, mouse
Method: (§1) Sleep experiments were conducted in male Sprague-Dawley rats (350–450 g, Harlan Laboratories, Livermore, CA, United States) and in male C57Bl6 OX2R knockout (KO) and corresponding wild-type mice (30–35 g, Charles River Laboratories, San Diego, CA, United States) as described previously ([Dugovic et al., 2009]). Animals were chronically implanted with telemetric devices (Data Sciences International, St. Paul, MN, United States) for the recording of electroencephalogram (EEG) and electromyogram (EMG) signals. Polysomnographic waveforms were analyzed per 10-s epoch and classified as wake, non-rapid eye movement (NREM) or REM sleep by using the computer software program SleepSign (Kissei Comtec, Nagano, Japan). For each experiment, EEG and EMG signals were recorded for up to 6 h after administration of the tested compounds. Analysis of sleep parameters included latency to NREM sleep (defined as the time interval to the first six consecutive NREM epochs) and REM sleep (the first two consecutive REM epochs post-treatment), and the duration of NREM and REM.
(§2) Results were averaged and expressed as mean ± SEM in defined time intervals. To determine whether differences were significant at a given interval, either paired Student’s t-test or two-way analysis of variance (ANOVA) (interaction time × treatment), repeated measures followed by Bonferroni post hoc test was performed.
(§3) In the present study, the in vivo functional target engagement was investigated in a model of permanent inhibition of OX2R, and the effects of JNJ-5471773 on sleep-wake states were examined in mice lacking the OX2R relative to their corresponding wild-type mice. […] NREM sleep latency and duration were not affected in both genotypes (not shown).

human OX2R = molecular target: T1, human OX2R (Homo sapiens, UniProt O43614); assay: Calcium mobilization functional assay, PFSK-1 cells, OX-B; type: cell-based
T1 sequence (O43614 1-444): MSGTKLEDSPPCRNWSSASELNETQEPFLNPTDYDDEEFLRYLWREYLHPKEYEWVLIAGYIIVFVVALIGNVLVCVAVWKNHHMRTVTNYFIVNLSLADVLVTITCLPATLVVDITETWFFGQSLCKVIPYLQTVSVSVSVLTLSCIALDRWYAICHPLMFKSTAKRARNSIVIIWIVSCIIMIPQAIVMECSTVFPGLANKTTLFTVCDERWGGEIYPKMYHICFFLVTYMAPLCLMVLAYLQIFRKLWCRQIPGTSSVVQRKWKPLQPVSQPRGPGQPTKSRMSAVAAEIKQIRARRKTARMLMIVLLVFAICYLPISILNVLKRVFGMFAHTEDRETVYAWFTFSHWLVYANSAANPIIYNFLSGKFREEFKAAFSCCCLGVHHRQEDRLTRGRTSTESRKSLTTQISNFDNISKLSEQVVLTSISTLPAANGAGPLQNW
Method: The human OX2R functional assay used PFSK-1 cells which are a human neuroectodermal cell line that innately expresses the OX2R. Since the intracellular calcium response is transient and not consistent with equilibrium assumptions, the assays were performed by giving a standard, EC80 dose of the OX agonist and calculating a pKB from inhibition of the agonist response by a dose range of the antagonists. The cells were plated in black 96 well tissue culture plates with clear bottoms at 50,000 cells/well and grown overnight at 37°C in 5% carbon dioxide (CO2). […] The cell plate was then transferred to the Molecular Devices Fluorometric Imaging Plate Reader (FLIPR) Tetra instrument, which adds the OX agonist and monitors changes in fluorescence which reflect intracellular calcium levels.
Results were calculated using GraphPad Prism (San Diego, CA, United States) software. Raw data from the FLIPR Tetra was exported as the difference between maximum and minimum fluorescence observed for each well. A non-linear regression was used to determine the agonist EC50 and antagonist IC50 for each plate, then the antagonist KB was calculated according to Cheng and Prusoff ([Cheng and Prusoff, 1973]).

human OX1R = molecular target: T2, human OX1R (Homo sapiens, UniProt O43613); assay: Human OX1R competitive radioligand binding ([3H]SB-674042); set-up: expressed in transfected cells; host or cells: clonal CHO-K1 cells
T2 sequence (O43613 1-425): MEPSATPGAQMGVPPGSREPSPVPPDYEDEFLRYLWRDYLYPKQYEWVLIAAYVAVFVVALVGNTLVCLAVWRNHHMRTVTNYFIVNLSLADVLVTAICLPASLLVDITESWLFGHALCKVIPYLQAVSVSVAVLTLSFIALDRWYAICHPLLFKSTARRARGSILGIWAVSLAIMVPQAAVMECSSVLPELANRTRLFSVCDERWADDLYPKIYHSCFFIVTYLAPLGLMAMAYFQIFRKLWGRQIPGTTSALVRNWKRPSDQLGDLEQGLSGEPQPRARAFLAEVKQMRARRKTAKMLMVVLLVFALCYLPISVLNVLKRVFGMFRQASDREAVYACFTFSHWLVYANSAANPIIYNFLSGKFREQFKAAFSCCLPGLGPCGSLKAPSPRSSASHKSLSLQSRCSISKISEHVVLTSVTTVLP
Method: Human or rat OX1R binding was measured in competitive radioligand binding assays using [^3H]SB-674042 (1-(5-(2-fluoro-phenyl)-2-methyl-thiazol-4-yl)-1-((S)-2-(5-phenyl-(1,3,4)oxadiazol-2-ylmethyl)-pyrrolidin-l-yl)-methanone) as a tracer (4 nM, specific activity 35 Ci/mmol) as previously described ([Langmead et al., 2004]). Cell membranes were prepared from clonal CHO K1 cells transfected with the human OX1R or clonal HEK-293 cells transfected with the rat OX1R. Dilutions of test compounds were made in Dulbecco’s PBS from 10 mM stocks dissolved in dimethyl sulfoxide. After a 60 min incubation at room temperature, binding reactions were filtered. The membranes were counted in a scintillation counter. Non-specific binding was determined in the presence of 10 μM almorexant. Affinities of compounds for the human OX2R were measured by competitive radioligand binding using tritiated N-ethyl-2-[(6-methoxy-pyridin-3-yl)-(toluene-2-sulfonyl)-amino]-N-pyridin-3-ylmethyl-acetamide (EMPA) (2 nM, specific activity 27 Ci/mmol) ([Malherbe et al., 2009]). Cell membranes were prepared from a stable pool of HEK-293 cells transfected with the human OX2R. Non-specific binding was determined with 10 μM almorexant.
The Ki of the test compounds was calculated based on non-linear regression (one site competition) using Graphpad Prism. […]

[1] = system: C57Bl6 OX2R knockout (KO) mice; assay: Sleep recording (EEG/EMG) in OX2R knockout mice; type: in vivo, mouse
Method: as §1, §2, §3

O=C(c1cccc(F)c1-c1ncccn1)N1[C@@H]2CC[C@H]1[C@H](Nc1cnc(C(F)(F)F)cn1)C2 [JNJ-54717793, (1S,2R,4R)-7-([(3-fluoro-2-pyrimidin-2-ylphenyl)carbonyl]-N-[5-(trifluoromethyl)pyrazin-2-yl]-7-azabicyclo[2.2.1]heptan-2-amine)]
REM sleep duration (wild-type mice; 30 mg/kg oral): did not alter | REM sleep latency (wild-type mice; 30 mg/kg oral): slightly reduced | NREM sleep latency and duration (wild-type mice; 30 mg/kg oral (not shown)): not affected | Kb (human OX2R): 309 nM | Ki (human OX1R): 14.8 nM | binding selectivity at the human OX1R compared to the human OX2R (human OX1R; hOX1R versus hOX2R): 50 fold | NREM sleep latency and duration ([1]; 30 mg/kg oral (not shown)): not affected | time spent in REM sleep ([1]; 30 mg/kg oral, first 6 h post-treatment, versus vehicle): prolonged | latency for REM sleep ([1]; 30 mg/kg oral, versus vehicle): significantly reduced
